The values below are quoted from earlier work in article PMC3991022, “Comparison of Functional Protein Transduction Domains Using the NEMO Binding Domain Peptide” (Pharmaceuticals, 2010).

The data set concerns mouse model of collagen induced arthritis. Details: method as in PMID 15156202. The following applies: injection of NBD peptide.

Take TALDWSWLQTE [NBD peptide]: the amelioration of arthritis entry was “significantly ameliorated the arthritis”.
